Like-named read-outs stand apart in the source and are kept apart here.
Assays:
[1] = system: Key Broadleaf Weed and Crop Species; experiment: Post-emergent Test II herbicidal activity (Table 5); type: in vivo; conditions: post-emergence, 336 h, 14 days after application; for pest or weed control at 70 g/ha: application rate 70 g ai/ha; for pest or weed control at 140 g/ha: application rate 140 g ai/ha
How it was run: (§1)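 Spray rates: a highest rate plus ½×, ¼×, ⅛×, 1/16×, all delivered at 187 L/ha to plants at the first–second true leaf stage. Readout is a visual percent injury score at 14 d, where 100 means complete kill.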

[2] = system: Key Grass and Sedge Weeds as well as Grass Crops; experiment: Post-emergent Test II herbicidal activity (Table 6); type: in vivo; conditions: post-emergence, 336 h; for pest or weed control at 70 g/ha: 70 g ai/ha; for pest or weed control at 140 g/ha: 140 g ai/ha
How it was run: as §1

[3] = ABUTH: velvetleaf (Abutilon theophrasti), read-out: Visual Growth Reduction (%) 14 Days After Application, ABUTH
[4] = AMARE: redroot pigweed (Amaranthus retroflexus), read-out: Visual Growth Reduction (%) 14 Days After Application, AMARE
[5] = BRSNN: oilseed-rape, canola (Brassica napus), read-out: Visual Growth Reduction (%) 14 Days After Application, BRSNN
[6] = CHEAL: lambsquarters (Chenopodium album), read-out: Visual Growth Reduction (%) 14 Days After Application, CHEAL
[7] = EPHHL: wild poinsettia (Euphorbia heterophylla), read-out: Visual Growth Reduction (%) 14 Days After Application, EPHHL
[8] = HELAN: sunflower (Helianthus annuus), read-out: Visual Growth Reduction (%) 14 Days After Application, HELAN
[9] = VIOTR: wild pansy (Viola tricolor), read-out: Visual Growth Reduction (%) 14 Days After Application, VIOTR
[10] = CYPES: yellow nutsedge (Cyperus esculentus), read-out: Visual Growth Reduction (%) 14 Days After Application, CYPES
[11] = DIGSA: crabgrass (Digitaria sanguinalis), read-out: Visual Growth Reduction (%) 14 Days After Application, DIGSA
[12] = ECHCG: barnyardgrass (Echinochloa crus-galli), read-out: Visual Growth Reduction (%) 14 Days After Application, ECHCG
[13] = ORYSA: rice (Oryza sativa), crop, read-out: Visual Growth Reduction (%) 14 Days After Application, ORYSA
[14] = SETFA: giant foxtail (Setaria faberi), read-out: Visual Growth Reduction (%) 14 Days After Application, SETFA
[15] = SORVU: grain sorghum (Sorghum vulgare), read-out: Visual Growth Reduction (%) 14 Days After Application, SORVU
[16] = TRZSS (wheat, Triticum aestivum), crop, read-out: Visual Growth Reduction (%) 14 Days After Application, TRZSS
[17] = ZEAMX: maize, corn (Zea mays), crop, read-out: Visual Growth Reduction (%) 14 Days After Application, ZEAMX

Row | SMILES | pest or weed control at 70 g/ha [1, 3] | pest or weed control at 140 g/ha [1, 3] | pest or weed control at 70 g/ha [1, 4] | pest or weed control at 140 g/ha [1, 4] | pest or weed control at 70 g/ha [1, 5] | pest or weed control at 140 g/ha [1, 5] | pest or weed control at 70 g/ha [1, 6] | pest or weed control at 140 g/ha [1, 6] | pest or weed control at 70 g/ha [1, 7] | pest or weed control at 140 g/ha [1, 7] | pest or weed control at 70 g/ha [1, 8] | pest or weed control at 140 g/ha [1, 8] | pest or weed control at 70 g/ha [1, 9] | pest or weed control at 140 g/ha [1, 9] | pest or weed control at 70 g/ha [2, 10] | pest or weed control at 140 g/ha [2, 10] | pest or weed control at 70 g/ha [2, 11] | pest or weed control at 140 g/ha [2, 11] | pest or weed control at 70 g/ha [2, 12] | pest or weed control at 140 g/ha [2, 12] | further results
1 | COC(=O)c1nc(-c2ccc(I)c(F)c2F)nc(N)c1OC [Compound 24, methyl 6-amino-2-(2,3-difluoro-4-iodophenyl)-5-methoxypyrimidine-4-carboxylate] | 95 to 100% | 95 to 100% | 75 to 84% | 85 to 94% | 95 to 100% | 95 to 100% | 95 to 100% | 95 to 100% | 95 to 100% | 95 to 100% | 85 to 94% | 95 to 100% | 45 to 59% | 95 to 100% | 95 to 100% | 95 to 100% | 45 to 59% | 60 to 74% | 95 to 100% | 95 to 100% | pest or weed control at 70 g/ha [2, 13]: 0 to 29%; pest or weed control at 140 g/ha [2, 13]: 0 to 29%; pest or weed control at 70 g/ha [2, 14]: 60 to 74%; pest or weed control at 140 g/ha [2, 14]: 85 to 94%; pest or weed control at 70 g/ha [2, 15]: 85 to 94%; pest or weed control at 140 g/ha [2, 15]: 85 to 94%; pest or weed control at 70 g/ha [2, 16]: 0 to 29%; pest or weed control at 140 g/ha [2, 16]: 30 to 44%; pest or weed control at 70 g/ha [2, 17]: 95 to 100%; pest or weed control at 140 g/ha [2, 17]: 95 to 100%; melting point: 169 to 170 °C
2 | C#Cc1ccc(-c2nc(C(=O)OC)c(Cl)c(N)c2F)c(F)c1 [Compound 121] | 85 to 94% | 85 to 94% | 0 to 29% | 0 to 29% | 85 to 94% | 95 to 100% | 75 to 84% | 95 to 100% | 45 to 59% | 95 to 100% | 85 to 94% | 95 to 100% | 0 to 29% | 0 to 29% | 45 to 59% | 45 to 59% | 0 to 29% | 0 to 29% | 0 to 29% | 0 to 29% | pest or weed control at 70 g/ha [2, 13]: 0 to 29%; pest or weed control at 140 g/ha [2, 13]: 0 to 29%; pest or weed control at 70 g/ha [2, 14]: 0 to 29%; pest or weed control at 140 g/ha [2, 14]: 0 to 29%; pest or weed control at 70 g/ha [2, 15]: 45 to 59%; pest or weed control at 140 g/ha [2, 15]: 60 to 74%; pest or weed control at 70 g/ha [2, 16]: 0 to 29%; pest or weed control at 140 g/ha [2, 16]: 0 to 29%; pest or weed control at 70 g/ha [2, 17]: 95 to 100%; pest or weed control at 140 g/ha [2, 17]: 95 to 100%; melting point: 186 to 188 °C

Reference: patent US9113629B2, “4-amino-6-(4-substituted-phenyl)-picolinates and 6-amino-2-(4-substituted-phenyl)-pyrimidine-4-carboxylates and their use as herbicides” (DOW AGROSCIENCES LLC, priority 2013, dated 2015)
